# Measured values published in ChEMBL document CHEMBL3860050, “Triterpenoids from Momordica balsamina: Reversal of ABCB1-mediated multidrug resistance” (Bioorg Med Chem, 2016).
# Key:
# [1] = target: T1, ATP-dependent translocase ABCB1 (Homo sapiens, UniProt P08183); test: Inhibition of MDR1-mediated efflux-pump activity in mouse L5178Y cells expressing human MDR1 assessed as forward scattered light at 20 uM preincubated for 10 mins followed by rhodamine-123 addition measured after 20 mins by flow cytometry (reference value: 455.7 to 509.9); format: cell-based
# [2] = target: T1, ATP-dependent translocase ABCB1; test: Inhibition of MDR1-mediated efflux-pump activity in mouse L5178Y cells expressing human MDR1 assessed as forward scattered light at 2 uM preincubated for 10 mins followed by rhodamine-123 addition measured after 20 mins by flow cytometry (reference value: 455.7 to 509.9); format: cell-based
# [3] = Antiproliferative activity against mouse L5178Y cells expressing human MDR1 measured after 72 hrs by MTT assay; format: functional, cell-based
# [4] = Antiproliferative activity against mouse L5178Y cells measured after 72 hrs by MTT assay; format: functional, cell-based
# [5] = target: T1, ATP-dependent translocase ABCB1; test: Inhibition of MDR1-mediated efflux-pump activity in mouse L5178Y cells expressing human MDR1 assessed as side scattered light at 2 uM preincubated for 10 mins followed by rhodamine-123 addition measured after 20 mins by flow cytometry (reference value: 194.6 to 286.4); format: cell-based
# [6] = target: T1, ATP-dependent translocase ABCB1; test: Inhibition of MDR1-mediated efflux-pump activity in mouse L5178Y cells expressing human MDR1 assessed as side scattered light at 20 uM preincubated for 10 mins followed by rhodamine-123 addition measured after 20 mins by flow cytometry (reference value: 194.6 to 286.4); format: cell-based
# [7] = target: T1, ATP-dependent translocase ABCB1; test: Inhibition of MDR1-mediated efflux-pump activity in mouse L5178Y cells expressing human MDR1 assessed as mean fluorescence intensity at 2 uM preincubated for 10 mins followed by rhodamine-123 addition measured after 20 mins by flow cytometry (reference value: 7.1 to 18.6); format: cell-based
# [8] = target: T1, ATP-dependent translocase ABCB1; test: Inhibition of MDR1-mediated efflux-pump activity in mouse L5178Y cells expressing human MDR1 assessed as mean fluorescence intensity at 20 uM preincubated for 10 mins followed by rhodamine-123 addition measured after 20 mins by flow cytometry (reference value: 7.1 to 18.6); format: cell-based
# [9] = target: T1, ATP-dependent translocase ABCB1; test: Inhibition of MDR1-mediated efflux-pump activity in mouse L5178Y cells expressing human MDR1 assessed as fluorescence activity ratio at 2 uM preincubated for 10 mins followed by rhodamine-123 addition measured after 20 mins by flow cytometry; format: cell-based
# [10] = target: T1, ATP-dependent translocase ABCB1; test: Inhibition of MDR1-mediated efflux-pump activity in mouse L5178Y cells expressing human MDR1 assessed as fluorescence activity ratio at 20 uM preincubated for 10 mins followed by rhodamine-123 addition measured after 20 mins by flow cytometry; format: cell-based
# T1 sequence (P08183 whole entry): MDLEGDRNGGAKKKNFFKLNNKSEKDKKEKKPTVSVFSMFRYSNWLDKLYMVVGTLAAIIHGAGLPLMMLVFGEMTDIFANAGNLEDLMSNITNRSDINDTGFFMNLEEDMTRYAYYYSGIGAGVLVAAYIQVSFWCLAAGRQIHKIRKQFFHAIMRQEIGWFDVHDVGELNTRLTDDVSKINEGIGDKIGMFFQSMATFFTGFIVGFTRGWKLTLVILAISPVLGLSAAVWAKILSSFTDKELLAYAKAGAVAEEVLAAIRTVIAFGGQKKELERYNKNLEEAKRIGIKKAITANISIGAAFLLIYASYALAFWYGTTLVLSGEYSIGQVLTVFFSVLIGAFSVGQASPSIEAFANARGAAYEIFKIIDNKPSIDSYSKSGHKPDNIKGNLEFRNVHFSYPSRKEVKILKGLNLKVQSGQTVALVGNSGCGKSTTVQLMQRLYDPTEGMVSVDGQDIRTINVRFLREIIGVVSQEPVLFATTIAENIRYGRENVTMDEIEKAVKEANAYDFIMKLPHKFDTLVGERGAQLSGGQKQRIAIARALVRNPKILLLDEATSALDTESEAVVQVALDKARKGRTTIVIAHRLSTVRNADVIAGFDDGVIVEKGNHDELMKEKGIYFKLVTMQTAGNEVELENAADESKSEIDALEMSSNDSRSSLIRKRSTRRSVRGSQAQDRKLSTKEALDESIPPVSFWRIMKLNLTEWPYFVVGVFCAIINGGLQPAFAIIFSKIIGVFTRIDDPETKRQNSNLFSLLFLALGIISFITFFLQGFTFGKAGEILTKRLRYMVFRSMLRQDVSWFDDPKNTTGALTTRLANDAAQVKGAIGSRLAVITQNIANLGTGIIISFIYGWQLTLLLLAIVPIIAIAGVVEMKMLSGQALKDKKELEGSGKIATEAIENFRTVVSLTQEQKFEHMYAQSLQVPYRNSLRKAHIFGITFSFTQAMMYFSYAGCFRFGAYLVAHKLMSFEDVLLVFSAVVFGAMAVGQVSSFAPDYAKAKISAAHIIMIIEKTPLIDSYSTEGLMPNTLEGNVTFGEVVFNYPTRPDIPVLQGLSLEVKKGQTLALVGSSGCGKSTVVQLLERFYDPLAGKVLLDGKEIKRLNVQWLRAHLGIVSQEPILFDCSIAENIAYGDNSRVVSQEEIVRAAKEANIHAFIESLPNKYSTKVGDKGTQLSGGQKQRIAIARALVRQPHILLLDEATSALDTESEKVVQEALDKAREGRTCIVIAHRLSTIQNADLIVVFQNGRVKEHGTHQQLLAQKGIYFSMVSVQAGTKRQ
structure (smiles),measurement,setting,value
CO[C@H]1C=C2[C@@H](CC[C@H](OC(=O)c3ccccc3)C2(C)C)[C@]2(C)CC[C@]3(C)[C@@H]([C@H](C)C[C@H](C=C(C)C)OC(=O)c4ccccc4)CC[C@@]3(C)[C@H]12 [KARAVOATE H],Activity,[1],519.8
same,Activity,[2],504.9
same,IC50,[3],96.4 µM
same,IC50,[4],> 133 µM
same,Activity,[5],200.4
same,Activity,[6],215.4
same,Flu intensity,[7],9
same,Flu intensity,[8],10.4
same,Ratio,[9],1.2
same,Ratio,[10],1.3
CC(C)=C[C@@H](C[C@@H](C)[C@H]1CC[C@@]2(C)[C@@H]3[C@@H](OC(=O)c4ccccc4)C=C4[C@@H](CC[C@H](OC(=O)c5ccccc5)C4(C)C)[C@]3(C)CC[C@]12C)OC(=O)c1ccccc1 [TRIBENZOYLBALSAMINOL F],Activity,[1],538.1
same,Activity,[2],524.2
same,IC50,[3],87.9 µM
same,IC50,[4],74.7 µM
same,Activity,[5],188.7
same,Activity,[6],181.7
same,Flu intensity,[7],7.6
same,Flu intensity,[8],7.1
same,Ratio,[9],1.3
same,Ratio,[10],1.1
CO[C@H]1C=C2[C@@H](CC[C@H](O)C2(C)C)[C@]2(C)CC[C@]3(C)[C@@H]([C@H](C)C[C@H](C=C(C)C)OC(=O)CCC(=O)O)CC[C@@]3(C)[C@H]12,Activity,[1],540.1
same,Activity,[2],545.2
same,IC50,[3],40.6 µM
same,IC50,[4],20.8 µM
same,Activity,[5],184.1
same,Activity,[6],185.6
same,Flu intensity,[7],7.5
same,Flu intensity,[8],28
same,Ratio,[9],1.1
same,Ratio,[10],4.2
COc1ccc(C(=O)O[C@@H](C=C(C)C)C[C@@H](C)[C@H]2CC[C@@]3(C)[C@@H]4[C@@H](OC)C=C5[C@@H](CC[C@H](O)C5(C)C)[C@]4(C)CC[C@]23C)cc1 [KARAVOATE M],Activity,[1],531.9
same,Activity,[2],526
same,IC50,[3],87.5 µM
same,IC50,[4],59.4 µM
same,Activity,[5],192.3
same,Activity,[6],181.8
same,Flu intensity,[7],12.3
same,Flu intensity,[8],11.4
same,Ratio,[9],1.8
same,Ratio,[10],1.7
CO[C@H]1C=C2[C@@H](CC[C@H](O)C2(C)C)[C@]2(C)CC[C@]3(C)[C@@H]([C@H](C)C[C@H](C=C(C)C)OC(=O)c4ccc(Cl)cc4)CC[C@@]3(C)[C@H]12 [KARAVOATE K],Activity,[1],511.1
same,Activity,[2],517.9
same,IC50,[3],93.2 µM
same,IC50,[4],63.4 µM
same,Activity,[5],207
same,Activity,[6],210.8
same,Flu intensity,[7],10.7
same,Flu intensity,[8],12.2
same,Ratio,[9],1.4
same,Ratio,[10],1.6
CC(C)=C[C@H](O)C[C@@H](C)[C@H]1CC[C@@]2(C)[C@@H]3[C@@H](O)C=C4[C@@H](CC[C@H](O)C4(C)C)[C@]3(C)CC[C@]12C [BALSAMINOL F],Activity,[2],490.7
same,IC50,[3],20.8 µM
same,IC50,[4],8.3 µM
same,Activity,[5],202.1
same,Flu intensity,[7],20.1
same,Ratio,[9],2.6
C[C@H](C/C=C/C(C)(C)O)[C@H]1CC[C@@]2(C)[C@@H]3[C@@H](O)C=C4[C@@H](CC[C@H](O)C4(C)C)[C@]3(C)C[C@@H](O)[C@]12C [CUCURBALSAMINOL A],Activity,[1],429
same,Activity,[2],427.2
same,IC50,[3],63.4 µM
same,IC50,[4],48.2 µM
same,Activity,[5],254.7
same,Activity,[6],252
same,Flu intensity,[7],8.8
same,Flu intensity,[8],38.2
same,Ratio,[9],0.7
same,Ratio,[10],2.9
CO[C@H]1C=C2[C@@H](CC[C@H](O)C2(C)C)[C@]2(C)CC[C@]3(C)[C@@H]([C@H](C)C[C@H](C=C(C)C)OC(=O)/C=C/c4ccccc4)CC[C@@]3(C)[C@H]12 [KARAVOATE O],Activity,[1],505.9
same,Activity,[2],496.9
same,IC50,[3],90 µM
same,IC50,[4],> 133 µM
same,Activity,[5],197.9
same,Activity,[6],206.9
same,Flu intensity,[7],10
same,Flu intensity,[8],11
same,Ratio,[9],1.3
same,Ratio,[10],1.4
CO[C@H]1C=C2[C@@H](CC[C@H](O)C2(C)C)[C@]2(C)CC[C@]3(C)[C@@H]([C@H](C)C[C@H](C=C(C)C)OC(=O)c4ccc([N+](=O)[O-])cc4)CC[C@@]3(C)[C@H]12 [KARAVOATE I],Activity,[1],534.1
same,Activity,[2],537.3
same,IC50,[3],60.4 µM
same,IC50,[4],29 µM
same,Activity,[5],184.1
same,Activity,[6],182.9
same,Flu intensity,[7],14.3
same,Flu intensity,[8],25.9
same,Ratio,[9],2.1
same,Ratio,[10],3.9
CO[C@H]1C=C2[C@@H](CC[C@H](OC(=O)CCC(=O)O)C2(C)C)[C@]2(C)CC[C@]3(C)[C@@H]([C@H](C)C[C@H](C=C(C)C)OC(=O)CCC(=O)O)CC[C@@]3(C)[C@H]12,Activity,[1],546.7
same,Activity,[2],545.8
same,IC50,[3],46.9 µM
same,IC50,[4],16.9 µM
same,Activity,[5],184.6
same,Activity,[6],187
same,Flu intensity,[7],8.2
same,Flu intensity,[8],39.5
same,Ratio,[9],1.3
same,Ratio,[10],5.9
CCCC(=O)O[C@H]1CC[C@@H]2C(=C[C@H](OC)[C@@H]3[C@@]2(C)CC[C@]2(C)[C@@H]([C@H](C)C[C@H](C=C(C)C)OC(=O)CCC)CC[C@@]32C)C1(C)C [KARAVOATE F],Activity,[1],541
same,Activity,[2],542.6
same,IC50,[3],> 133 µM
same,IC50,[4],93.2 µM
same,Activity,[5],218.3
same,Activity,[6],218.7
same,Flu intensity,[7],10.8
same,Flu intensity,[8],12.3
same,Ratio,[9],1.4
same,Ratio,[10],1.6
CO[C@H]1C=C2[C@@H](CC[C@H](OC(=O)c3ccc([N+](=O)[O-])cc3)C2(C)C)[C@]2(C)CC[C@]3(C)[C@@H]([C@H](C)C[C@H](C=C(C)C)OC(=O)c4ccc([N+](=O)[O-])cc4)CC[C@@]3(C)[C@H]12 [KARAVOATE J],Activity,[1],537.3
same,Activity,[2],543.4
same,IC50,[3],87.9 µM
same,IC50,[4],59.4 µM
same,Activity,[5],186.3
same,Activity,[6],184.1
same,Flu intensity,[7],9.5
same,Flu intensity,[8],14.3
same,Ratio,[9],1.4
same,Ratio,[10],2.1
CC(C)=C[C@H](O)C[C@@H](C)[C@H]1CC[C@@]2(C)[C@@H]3[C@@H](O[C@H]4O[C@@H](CO)[C@H](O)[C@H](O)[C@@H]4O)C=C4[C@@H](CC[C@H](O)C4(C)C)[C@]3(C)CC[C@]12C,Activity,[1],457.9
same,Activity,[2],443.8
same,IC50,[3],42.6 µM
same,IC50,[4],18.7 µM
same,Activity,[5],267.4
same,Activity,[6],277.2
same,Flu intensity,[7],11.5
same,Flu intensity,[8],487.1
same,Ratio,[9],0.9
same,Ratio,[10],37.2
C=C(C)[C@@H](O)[C@H](O)C[C@@H](C)[C@H]1CC[C@@]2(C)[C@@H]3[C@@H](O)C=C4[C@@H](CC[C@H](O)[C@]4(C)CO)[C@]3(C)CC[C@]12C [BALSAMINAPENTAOL A],Activity,[1],429
same,Activity,[2],427.2
same,IC50,[3],29.3 µM
same,IC50,[4],13.7 µM
same,Activity,[5],254.7
same,Activity,[6],252
same,Flu intensity,[7],8.8
same,Flu intensity,[8],38.2
same,Ratio,[9],0.7
same,Ratio,[10],2.9
CC(C)=C[C@H](O)C[C@@H](C)[C@H]1CC[C@@]2(C)[C@@H]3C(O[C@H]4O[C@@H](CO)[C@H](O)[C@@H](O)[C@@H]4O)C=C4[C@@H](CC[C@H](O)C4(C)C)[C@]3(C)CC[C@]12C (stereo partly specified),Activity,[1],573
same,Activity,[2],557.9
same,IC50,[3],54.2 µM
same,IC50,[4],19.2 µM
same,Activity,[5],235.6
same,Activity,[6],236.9
same,Flu intensity,[7],10.7
same,Flu intensity,[8],23.6
same,Ratio,[9],1
same,Ratio,[10],2.3
COc1ccc(C(=O)O[C@H]2CC[C@@H]3C(=C[C@H](OC)[C@@H]4[C@@]3(C)CC[C@]3(C)[C@@H]([C@H](C)C[C@H](C=C(C)C)OC(=O)c5ccc(OC)cc5)CC[C@@]43C)C2(C)C)cc1 [KARAVOATE N],Activity,[1],548.9
same,Activity,[2],528.1
same,IC50,[3],> 133 µM
same,IC50,[4],74.6 µM
same,Activity,[5],184.1
same,Activity,[6],186.7
same,Flu intensity,[7],6.3
same,Flu intensity,[8],9.7
same,Ratio,[9],0.9
same,Ratio,[10],1.4
CO[C@H]1C=C2[C@@H](CC[C@H](OC(=O)c3ccc(Cl)cc3)C2(C)C)[C@]2(C)CC[C@]3(C)[C@@H]([C@H](C)C[C@H](C=C(C)C)OC(=O)c4ccc(Cl)cc4)CC[C@@]3(C)[C@H]12 [KARAVOATE L],Activity,[1],512.2
same,Activity,[2],504.6
same,IC50,[3],> 133 µM
same,IC50,[4],> 133 µM
same,Activity,[5],206.4
same,Activity,[6],202.4
same,Flu intensity,[7],8.1
same,Flu intensity,[8],9
same,Ratio,[9],1
same,Ratio,[10],1.2
